Tests used:
MV-4-11 = assay: Antitumor effect in human-derived blood cancer cell line (MV-4-11) subcutaneous transplantation model (in vivo); parameters: species or system nude mouse (BALB/cA Jcl-nu/nu); details: oral, 100 mg/kg/day once per day for 14 days; RTV vs control group, Student-t test, p<0.05
Experimental: A human-derived blood cancer cell line MV-4-11 was transplanted subcutaneously into a nude mouse (BALB/cA Jcl-nu/nu, CLEA Japan, Inc.), and at the time when the tumor volume of the nude mouse on which the engrafted tumor reached 100 to 300 mm^3, four mice were assigned to each group by random stratification so that the average of the tumor volumes of each group was uniform (day 0), and the Example compound was orally administered daily at 100 mg/kg/day once per day for 14 days. Example Compound dosing solutions were prepared using 0.5% HPMC.
An electric balance for animals was used in body weight measurement. Rate of change in body weight on day n (BWCn) from body weight on day n (BWn) was calculated according to the following equation.
Rate of change in body weight BWCn (%)=(BWn−BW0)/BW0×100
Tumor volume (TV) was calculated according to the following equation by sandwiching and measuring the major axis and the minor axis with a digital caliper.
Tumor volume (mm^3)=Major axis (mm)×Minor axis (mm)×Minor axis (mm)/2
In order to compare the chronological transition of proliferation of tumor for the administration of each compound, relative tumor volume (RTV) setting the tumor volume at the time of grouping as 1 as the tumor proliferation rate was calculated according to the following formula, and the transition of the average value of RTV of each individual are shown in FIGS. 1 to 4.
RTV=(tumor volume at the day of tumor volume measurement)/(tumor volume at the time of the grouping)

[1] = test system: CFPAC-1 (Human pancreatic cancer cell line); assay: Effect of combination of sulfonamide compound and other antitumor agent (CellTiter-Glo, combination index): CFPAC-1;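 note: cells exposed to both agents together for 3 days, viability read by luminescence, normalized to vehicle-treated control wells, mean of triplicate wells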
[2] = Example Compound 1 225 nM + Prexasertib 1.89 nM, molar ratio 1:0.008406
[3] = Example Compound 1 338 nM + AZD6738 925 nM, molar ratio 1:2.738
[4] = Example Compound 1 338 nM + Prexasertib 2.84 nM, molar ratio 1:0.008406
[5] = Example Compound 1 338 nM + SCH900776 253 nM, molar ratio 1:0.7487
[6] = Example Compound 1 507 nM + AZD6738 1390 nM, molar ratio 1:2.738
[7] = Example Compound 1 507 nM + Prexasertib 4.26 nM, molar ratio 1:0.008406
[8] = Example Compound 1 507 nM + SCH900776 380 nM, molar ratio 1:0.7487
[9] = Example Compound 1 760 nM + AZD6738 2080 nM, molar ratio 1:2.738
[10] = Example Compound 1 760 nM + Gemcitabine 5.28 nM, molar ratio 1:0.006950
[11] = Example Compound 1 760 nM + SCH900776 569 nM, molar ratio 1:0.7487

Compound: Cc1ccc(F)c([C@@H](C)[C@H](NS(=O)(=O)c2ccc(Br)cc2C(N)=O)c2n[nH]c(=O)o2)c1C [Example 1, 5-bromo-2-(N-((1 S,2R)-2-(6-fluoro-2,3-dimethylphenyl)-1-(5-oxo-4,5-dihydro-1,3,4-oxadiazol-2-yl)propyl)sulfamoyl)benzamide]
- antitumor effect (relative tumor volume, RTV) (MV-4-11): antitumor effect
- CI value [1, 2]: 0.825
- Fa value [1, 2]: 0.2319
- CI value [1, 3]: 0.484
- Fa value [1, 3]: 0.4791
- CI value [1, 4]: 0.580
- Fa value [1, 4]: 0.6056
- CI value [1, 5]: 0.496
- Fa value [1, 5]: 0.4162
- CI value [1, 6]: 0.356
- Fa value [1, 6]: 0.7266
- CI value [1, 7]: 0.633
- Fa value [1, 7]: 0.7542
- CI value [1, 8]: 0.369
- Fa value [1, 8]: 0.6944
- CI value [1, 9]: 0.427
- Fa value [1, 9]: 0.7884
- CI value [1, 10]: 0.790
- Fa value [1, 10]: 0.6416
- CI value [1, 11]: 0.472
- Fa value [1, 11]: 0.7479

From patent US20200405697A1, “Antitumor Agent” (Taiho Pharmaceutical Co., Ltd, priority 2017, published 2020)
